From patent US9556111B2, “Tertiary amines for use in the treatment of cardiac disorders” (Universitetet I Oslo, priority 2012, dated 2017)
Where two headings read alike, the source gives them in different places.

Columns and labels:
[1] = tested on: metabolically active cells; test: Cell viability luminescence assay; format: cell-based; details: 24 hours incubation
Description: Compound toxicity was measured in a luminescence assay that gives a signal proportional to the amount of metabolically active cells in the sample; the assay was performed as described by the supplier. All synthesized compounds were tested in the viability assay, and viability was registered at 24 hours and 72 hours.

[2] = tested on: PLB-Ser^16 phosphorylation; test: PLB-Ser16 phosphorylation in isoproterenol-stimulated rat neonatal cardiomyocytes (western blot); format: cell-based; details: for Effect on PLB phosphorylation in cardiomyocytes / effect on PLB phosphorylation: rat neonatal cardiomyocytes; for Effect on PLB phosphorylation in cardiomyocytes: compounds 24 hours prior isoproterenol (100 nM, 5 minutes); for IC50: Rattus norvegicus, Cardiomyocyte, read-out: half-maximal effect, inhibition of phospholamban phosphorylation; for effect on PLB phosphorylation: Example 53
Description: FIG. 7: Disruption of the AKAP18δ-PLB complex influences PLB-Ser^16 phosphorylation. Rat neonatal cardiomyocytes treated with compounds 24 hours prior stimulation with isoproterenol (100 nM, 5 minutes).
(§1) FIG. 9: Disruption of the AKAP18δ-PLB complex influences PLB-Ser^16 phosphorylation. Rat neonatal cardiomyocytes treated with compound 2g (A) or 3d (C) 24 hours prior stimulation with isoproterenol (100 nM, 5 minutes). Rat adult cardiomyocytes treated with compound 2g (B) 1 hour prior to stimulation with isoproterenol (10 nM, 5 minutes). The histograms show levels of phosphorylated Ser^16-PLB quantified by densitometry on Western blots (relative to actin levels).
Based on data from studies in cardiomyocytes assay using a peptide that blocks AKAP18δ-PLB interaction, it was expected that effective compounds would also cause disruption of the AKAP18δ-PLB complex and decrease PLB-Ser^16 phosphorylation (Lygren et al. in EMBO Reports, volume 8, issue 11, page 1061-1067 (2007). A small selection of hits from the derivatized compounds were tested in this cell-based assay, performed as described in Lygren et al.
Briefly, compounds were added to primary cultures of rat neonatal cardiomyocytes were added compounds about 24 hour prior stimulation with isoproterenol, and amount of phosphorylated Ser^16-PLB was analyzed by western blotting using a pSer^16-PLB phosphospecific antibody. Actin was used as a loading control.
Rat neonatal cardiomyocytes treated with compounds 24 hours prior stimulation with isoproterenol (100 nM, 5 minutes).

SERCA2 = SERCA2 (Rattus norvegicus (Rat), UniProt P11507); test: Patch clamp based SERCA2 activity assay in intact adult rat cardiomyocytes; details: 10 uM mesylate salt, cell dialysis in the presence of cAMP, preliminary data
Description: FIG. 10: Compound 2g regulates SERCA2-activity. A novel patch clamp based technique was performed to directly assess SERCA-activity independently of receptor stimulation in intact cardiomyocytes. By dialyzing cardiomyocytes with a fixed level of cAMP with and without presence of compound 2g, preliminary data indicates ability of compound 2g to regulate SERCA2-activity in intact adult cardiomyocytes.
Adult rat cardiomyocytes were isolated and perfused with external solution (NaCl-125, CsCl 20, D-glucose 5, MgCl2 1, CaCl2 1.8, Hepes 10, 4-aminopyridine 5, probenecid 2, pH 7.4 by NaOH). […] Whole-cell Ca fluorescence measured from voltage-clamped cells was performed with Cairn Research Optoscan Monochromator (Excitation 488 nm, emission 515 nm long pass) (Cain Research Ltd., Faverham, UK). By applying 100 ms square voltage step from −45 to 0 mV at 0.125 Hz by an Axoclamp 2B amplifier (Axon Instruments, Foster City, Calif., USA), basal Ca transients were recorded, and tau values were obtained by monoexponential fitting of the Ca^2+ extrusion phase from regular transients (τ) and caffeine transients (τcaff) after rapid applications of 10 mM caffeine. SERCA2 rate constant were calculated as: k_SERCA=1/τ−1/τcaff.

[3] = tested on: PLB-Ser^16 phosphorylation; test: PLB-Ser16 phosphorylation in isoproterenol-stimulated rat adult cardiomyocytes; format: cell-based; details: Cardiomyocyte, 1 hour prior isoproterenol (10 nM, 5 minutes), read-out: half-maximal effect, inhibition of phospholamban phosphorylation
Description: as §1
Following on Example 53, two compounds, 2g and 3d (FIGS. 9A.B and 9C, respectively), were tested in more detail for their ability to interfere with phosphorylation of phospholamban after stimulation of neonatal (FIGS. 9A and 9C) or adult (FIG. 9B) primary cultures of cardiomyocytes.

[4] = Aqueous solubility of free bases and various salts by dissolution at room temperature; format: physicochemical; details: water, thermodynamic from solid
Description: The aqueous solubility of various amine compounds and their corresponding salts were determined by dissolution of various amounts of the respective compounds at room temperature.

[5] = Aqueous solubility of tribenzylamine and salts quantified by HPLC (AUC); format: physicochemical; details: HPLC area under curve
Description: Tribenzylamine and the corresponding salts were dissolved in water and the solubility was quantified (area under curve (AUC)) by HPLC
Solubility of Tribenzylamine and its Corresponding HCl and Mesylate Salts, Tested on HPLC.

[6] = 24 hours prior isoproterenol (100 nM, 5 minutes)
[7] = HCl salt, read-out: Solubility HCl salt
[8] = free base, read-out: Solubility free base
[9] = mesylate salt, read-out: Solubility Mesylate salt

solubility [4, 7] [µg/mL] | solubility [4, 8] [µg/mL] | solubility [4, 9] [µg/mL] | Compound | Viability (100 μM) 24 hours [1] | further results
 |  |  | Fc1ccc(CN(Cc2ccncc2)Cc2ccc(F)cc2)cc1 [Compound 2a, N,N-bis(4-fluorobenzyl)-1-(pyridin-4-yl)methanamine] | 0.85 | 
 |  |  | Oc1ccc(O)c(CN(Cc2ccncc2)Cc2cc(O)ccc2O)c1 [Compound 2b, 2,2′-(((pyridin-4-ylmethyl)azanediyl)bis(methylene))bis(benzene-1,4-diol)] | 0.10 | Effect on PLB phosphorylation in cardiomyocytes [2]: −
 |  |  | Fc1ccc(CN(Cc2ccc(F)cc2)Cc2nccs2)cc1 [Compound 2c, N,N-bis(4-fluorobenzyl)-1-(thiazol-2-yl)methanamine] | 1.11 | 
 |  |  | COc1ccc(CN(Cc2ccc(OC)cc2)Cc2nccs2)cc1 [Compound 2d, N,N-bis(4-methoxybenzyl)-1-(thiazol-2-yl)methanamine] | 1.15 | 
 |  |  | COc1ccc(CN(Cc2ccccc2)Cc2ccc(OC)cc2)cc1 [Compound 2e, N-benzyl-N-(4-methoxybenzyl)-1-(4-methoxyphenyl)methanamine] | 1.01 | 
 |  |  | COC(=O)c1ccc(CN(Cc2ccccc2)Cc2ccc(C(=O)OC)cc2)cc1 [Compound 2f, dimethyl 4,4′-((benzylazanediyl)bis(methylene))dibenzoate] | 0.92 | 
 |  |  | CN(C)c1ccc(CN(Cc2ccccc2)Cc2ccc(N(C)C)cc2)cc1 [Compound 2g, 4-((benzyl(4-(dimethylamino)benzyl)amino)methyl)-N,N-dimethylaniline] | 0.56 | SERCA2 activity (SERCA2): increased SERCA2 activity; IC50 [2]: ~40 µM; effect on PLB phosphorylation [2, 6]: concentration dependent inhibition of PLB-phosphorylation; Effect on PLB phosphorylation in cardiomyocytes [2]: ++; IC50 [3]: ~100 µM
 |  |  | CC(c1ccccc1)N(Cc1ccc(N(C)C)cc1)Cc1ccc(N(C)C)cc1 (stereo not shown) [Compound 2h, 4-(((4-(dimethylamino)benzyl)(1-phenylethyl)amino)methyl)-N,N-dimethylaniline] | 0.91 | 
 |  |  | CC(C)(C)c1ccc(CN(Cc2ccncc2)Cc2ccc(F)cc2)cc1 [Compound 3a, N-(4-(tert-butyl)benzyl)-N-(4-fluorobenzyl)-1-(pyridin-4-yl)methanamine] | 0.79 | 
 |  |  | Oc1ccc(O)c(CN(Cc2ccncc2)Cc2ccc(F)cc2)c1 [Compound 3b, 2-(((4-fluorobenzyl)(pyridin-4-ylmethyl)amino)methyl)benzene-1,4-diol] | 0.03 | 
 |  |  | CN(C)c1ccc(CN(Cc2ccccc2)CC(c2ccccc2)c2ccccc2)cc1 [Compound 3c, 4-((benzyl(2,2-diphenylethyl)amino)methyl)-N,N-dimethylaniline] | 0.74 | effect on PLB phosphorylation [2, 6]: somewhat weaker than that of 2g; Effect on PLB phosphorylation in cardiomyocytes [2]: +
 |  |  | CN(C)c1ccc(CN(Cc2ccccc2)Cc2ccc3c(c2)CCO3)cc1 [Compound 3d] | 0.58 | IC50 ([2]; neonatal cardiomyocytes, 24 hours prior isoproterenol (100 nM, 5 minutes)): ~100 µM; effect on PLB phosphorylation [2, 6]: did not appear to have an effect; Effect on PLB phosphorylation in cardiomyocytes [2]: −
 |  |  | COC(=O)c1ccc(CN(Cc2ccccc2)Cc2ccc(F)cc2)cc1 [Compound 3e, methyl 4-((benzyl(4-fluorobenzyl)amino)methyl)benzoate] | 0.57 | 
 |  |  | O=C(O)c1ccc(CN(Cc2ccccc2)Cc2ccc(F)cc2)cc1 [Compound 3f, 4-((benzyl(4-fluorobenzyl)amino)methyl)benzoic acid] | 0.98 | effect on PLB phosphorylation [2, 6]: did not appear to have an effect; Effect on PLB phosphorylation in cardiomyocytes [2]: +
 |  |  | Fc1ccc(CN(Cc2ccccc2)Cc2ccc(-c3ccccc3-c3nn[nH]n3)cc2)cc1 [Compound 3g, 1-(2′-(2H-tetrazol-5-yl)-[1,1′-biphenyl]-4-yl)-N-benzyl-N-(4-fluorobenzyl)methanamine] | 0.80 | 
< 360 | < 360 | < 360 | COC(=O)c1ccc(CN(Cc2ccccc2)Cc2ccc(C(=O)OC)cc2)cc1 [Compound 17, dimethyl 4,4′-((benzylazanediyl)bis(methylene))dibenzoate] |  | 
< 50 | < 50 | < 50 | O=C(O)c1ccc(CN(Cc2ccccc2)Cc2ccc(C(=O)O)cc2)cc1 [Compound 18] |  | 
< 50 | < 50 | < 50 | CC(C)(C)c1ccc(CN(Cc2ccccc2)Cc2ccc(C(C)(C)C)cc2)cc1 [Compound 19, N-benzyl-N-(4-(tert-butyl)benzyl)-1-(4-(tert-butyl)phenyl)methanamine] |  | 
< 3000 | < 3000 | < 3000 | O=[N+]([O-])c1ccc(CN(Cc2ccccc2)Cc2ccc([N+](=O)[O-])cc2)cc1 [Compound 20, N-benzyl-N-(4-nitrobenzyl)-1-(4-nitrophenyl)methanamine] |  | 
4500 | < 50 | > 22000 | Nc1ccc(CN(Cc2ccccc2)Cc2ccc(N)cc2)cc1 [Compound 22, 4-(((4-aminobenzyl)(benzyl)amino)methyl)aniline] |  | 
15000 | < 50 | > 34000 | CCN(CC)c1ccc(CN(Cc2ccccc2)Cc2ccc(N(CC)CC)cc2)cc1 [Compound 23, 4-((benzyl(4-(diethylamino)benzyl)amino)methyl)-N,N-diethylaniline] |  | 
< 50 | < 50 | < 50 | Cc1ccc(NC(=O)Nc2ccc(CN(Cc3ccccc3)Cc3ccc(NC(=O)Nc4ccc(C)cc4)cc3)cc2)cc1 [Compound 25, 1,1′-(((benzylazanediyl)bis(methylene))bis(4,1-phenylene))bis(3-(p-tolyl)urea)] |  | 
< 1500 | < 1500 | < 1500 | O=C(Nc1ccc(F)cc1)Nc1ccc(CN(Cc2ccccc2)Cc2ccc(NC(=O)Nc3ccc(F)cc3)cc2)cc1 [Compound 26, 1,1′-(((benzylazanediyl)bis(methylene))bis(4,1-phenylene))bis(3-(4-fluorophenyl)urea)] |  | 
< 500 | < 500 | < 500 | O=C(Nc1ccccc1)Nc1ccc(CN(Cc2ccccc2)Cc2ccc(NC(=O)Nc3ccccc3)cc2)cc1 [Compound 27, 1,1′-(((benzylazanediyl)bis(methylene))bis(4,1-phenylene))bis(3-phenylurea)] |  | 
 |  |  | c1ccc(CN(Cc2ccccc2)Cc2ccccc2)cc1 [Tribenzylamine] |  | AUC HCl salt ([5]; HCl salt dissolved in water): 406 mAu*s; AUC Free base ([5]; free base dissolved in water): ≈0 mAu*s; AUC Mesylate salt ([5]; mesylate salt dissolved in water): 1975 mAu*s

Compound | solubility [4, 7] [µg/mL] | solubility [4, 8] [µg/mL] | solubility [4, 9] [µg/mL] | Viability (100 μM) 24 hours [1] | further results
CN(C)c1ccc(CN(Cc2ccccc2)Cc2ccc(N(C)C)cc2)cc1 [Compound 29, 4-((benzyl(4-(dimethylamino)benzyl)amino)methyl)-N,N-dimethylaniline] | 6000 | < 160 | 94000 |  | 
